# Measured values: US8852618B2, “Insecticidal mixture containing gamma-cyhalothrin” (Syngenta Limited, priority 2001, dated 2014)
# Values joined by “and” are separate entries in the source; they are usually repeats but may differ in a detail not shown here. Identical values can stand only once. Like-named read-outs stand apart in the source and are kept apart here.
# Key:
# Heliothis virescens = assay: Sprayed cotton leaf test, mortality of 1st instar larvae after 3 days
# Experimental: (§1) For Heliothis and Spodoptera testing cotton leaves were sprayed in a Berkhard Potter Tower, left to dry for 1 hour and then placed on the top of pots containing twenty 1st instar Heliothis virescens/Spodoptera littoralis larvae. These were stored in a test holding room at 25° C. for 3 days and the test species assessed for mortality. For aphid testing Leaf discs were cut from excised Chinese cabbage leaves and placed on agar in test pots. R2 Myzus persicae were transferred from the culture on radish cotyledons and left overnight. The dried cotyledons were removed, leaving approximately 20-25 aphids on each leaf disc. The pots were sprayed in a Berkhard Potter Tower. Once dry, ventilated lids were placed on the top. These were stored in a Weiss Room at 20° C. for 3 days and the test species assessed for mortality. All tests included a Synperonic NP8 control. […] Any increase in the expected amount of mortality may be attributed to synergism. This is calculated in the following way: Expected mortality from mixture=% mortality of mixture partner A+(100%−% mortality of A)*(% mortality of mixture partner B). The results are set out in Tables I-III.
# Spodoptera littoralis = assay: as above; conditions: for Observed % mortality Other ai: 3 days
# Experimental: as §1
# Myzus persicae = assay: Sprayed Chinese cabbage leaf disc aphid test, mortality after 3 days; conditions: in Brassica rapa, foliar, 72 h
# Experimental: as §1
# [1] = read-out: Observed % mortality Gamma
# [2] = Spodoptera littoralis, in Gossypium hirsutum, 72 h, read-out: Observed % mortality Gamma
# [3] = read-out: Observed % mortality Other
compound,measurement,setting,value
emamectin benzoate,Observed % mortality Other ai,Heliothis virescens; other ai alone 0.13 ppm,97% and 96%
same,Observed % mortality Other ai,Heliothis virescens; other ai alone 0.25 ppm,97% and 96% and 99%
same,Observed % mortality Other ai,Heliothis virescens; other ai alone 0.50 ppm,96% and 99%
same,Observed % mortality Other ai,Spodoptera littoralis; other ai alone 0.0025 ppm,0%
same,Observed % mortality Other ai,Spodoptera littoralis; other ai alone 0.005 ppm,6%
same,Observed % mortality Other ai,Spodoptera littoralis; other ai alone 0.01 ppm,0%
abamectin,Observed % mortality Other ai,Heliothis virescens; other ai alone 0.25 ppm,0%
same,Observed % mortality Other ai,Heliothis virescens; other ai alone 0.50 ppm,0%
same,Observed % mortality Other ai,Heliothis virescens; other ai alone 1.00 ppm,0%
"CCOP(=S)(OCC)Oc1nc(Cl)c(Cl)cc1Cl [Chlorpyrifos, chlorpyrifos]",mortality at 2.5 ppm,"Heliothis virescens; Heliothis virescens, in Gossypium hirsutum, 72 h, read-out: Observed % mortality Other ai, other ai alone 2.50 ppm",36%
same,mortality at 5 ppm,"Heliothis virescens; Heliothis virescens, in Gossypium hirsutum, 72 h, read-out: Observed % mortality Other ai, other ai alone 5.00 ppm",29%
same,mortality at 10 ppm,"Heliothis virescens; Heliothis virescens, in Gossypium hirsutum, 72 h, read-out: Observed % mortality Other ai, other ai alone 10.00 ppm",44%
"CC1(C)[C@H](C(=O)O[C@H](C#N)c2cccc(Oc3ccccc3)c2)[C@@H]1/C=C(\Cl)C(F)(F)F [Gamma, (S)-α-cyano-3-phenoxybenzyl (Z)-(1R,3R)-3-(2-chloro-3,3,3-trifluoro-1-propenyl)-2,2-dimethylcyclopropanecarboxylate]",mortality at 0.25 ppm,Myzus persicae; [1],70%
same,mortality at 0.5 ppm,Myzus persicae; [1],69%
same,mortality at 1 ppm,Myzus persicae; [1],98%
same,Observed % mortality Gamma,Heliothis virescens; Gamma alone 0.25 ppm,28%
same,Observed % mortality Gamma,Heliothis virescens; Gamma alone 0.50 ppm,28%
same,Observed % mortality Gamma,Heliothis virescens; Gamma alone 1.00 ppm,28%
same,mortality at 0.25 ppm,"Heliothis virescens; Heliothis virescens, in Gossypium hirsutum, 72 h, read-out: Observed % mortality Gamma, Gamma alone 0.25 ppm",32%
same,mortality at 0.5 ppm,"Heliothis virescens; Heliothis virescens, in Gossypium hirsutum, 72 h, read-out: Observed % mortality Gamma, Gamma alone 0.50 ppm",32%
same,mortality at 1 ppm,"Heliothis virescens; Heliothis virescens, in Gossypium hirsutum, 72 h, read-out: Observed % mortality Gamma, Gamma alone 1.00 ppm",46%
same,mortality at 0.025 ppm,Spodoptera littoralis; [2],0%
same,mortality at 0.05 ppm,Spodoptera littoralis; [2],25%
same,mortality at 0.1 ppm,Spodoptera littoralis; [2],90%
COC(=O)N(C(=O)N1CO[C@@]2(C(=O)OC)Cc3cc(Cl)ccc3C2=N1)c1ccc(OC(F)(F)F)cc1 [Indoxacarb],Observed % mortality Other ai,Heliothis virescens; other ai alone 0.20 ppm,26% and 22%
same,Observed % mortality Other ai,Heliothis virescens; other ai alone 0.80 ppm,26% and 46%
"CN1COCN(Cc2cnc(Cl)s2)/C1=N\[N+](=O)[O-] [Thiamethoxam, thiamethoxam]",mortality at 1.25 ppm,Myzus persicae; [3],70%
same,mortality at 2.5 ppm,Myzus persicae; [3],92%
same,mortality at 5 ppm,Myzus persicae; [3],94%
"CC1(C)[C@H](C(=O)O[C@H](C#N)c2cccc(Oc3ccccc3)c2)[C@@H]1/C=C(\Cl)C(F)(F)F (racemic) [Lambda-cyhalothrin, lambda-cyhalothrin]",mortality at 0.125 ppm,Myzus persicae; [3],10%
same,mortality at 0.25 ppm,Myzus persicae; [3],4%
same,mortality at 0.5 ppm,Myzus persicae; [3],14%
same,mortality at 0.25 ppm,"Heliothis virescens; Heliothis virescens, in Gossypium hirsutum, 72 h, read-out: Observed % mortality Other ai, other ai alone 0.25 ppm",46%
same,mortality at 0.5 ppm,"Heliothis virescens; Heliothis virescens, in Gossypium hirsutum, 72 h, read-out: Observed % mortality Other ai, other ai alone 0.50 ppm",50%
same,mortality at 1 ppm,"Heliothis virescens; Heliothis virescens, in Gossypium hirsutum, 72 h, read-out: Observed % mortality Other ai, other ai alone 1.00 ppm",46%
same,Observed % mortality Other ai,Heliothis virescens; other ai alone 0.50 ppm,52%
same,Observed % mortality Other ai,Heliothis virescens; other ai alone 1.00 ppm,52%
